Test results published in patent US9422285B2, “Substituted pyrazolo[1,5-A]-pyridine-3-carboxamides and use thereof” (Bayer Pharma Aktiengesellschaft, priority 2014, dated 2016).
Structures can show the parent of a compound that is named as a salt.

Each compound was assayed against T1, recombinant guanylate cyclase reporter cell line (Rattus norvegicus, UniProt P19686+P20595) (assay: Effect on a recombinant guanylate cyclase reporter cell line (B-2)). Conditions: in some cases mean values for individual determinations.
T1 construct: expressed in transfected cells
T1 sequence (P19686 1-690): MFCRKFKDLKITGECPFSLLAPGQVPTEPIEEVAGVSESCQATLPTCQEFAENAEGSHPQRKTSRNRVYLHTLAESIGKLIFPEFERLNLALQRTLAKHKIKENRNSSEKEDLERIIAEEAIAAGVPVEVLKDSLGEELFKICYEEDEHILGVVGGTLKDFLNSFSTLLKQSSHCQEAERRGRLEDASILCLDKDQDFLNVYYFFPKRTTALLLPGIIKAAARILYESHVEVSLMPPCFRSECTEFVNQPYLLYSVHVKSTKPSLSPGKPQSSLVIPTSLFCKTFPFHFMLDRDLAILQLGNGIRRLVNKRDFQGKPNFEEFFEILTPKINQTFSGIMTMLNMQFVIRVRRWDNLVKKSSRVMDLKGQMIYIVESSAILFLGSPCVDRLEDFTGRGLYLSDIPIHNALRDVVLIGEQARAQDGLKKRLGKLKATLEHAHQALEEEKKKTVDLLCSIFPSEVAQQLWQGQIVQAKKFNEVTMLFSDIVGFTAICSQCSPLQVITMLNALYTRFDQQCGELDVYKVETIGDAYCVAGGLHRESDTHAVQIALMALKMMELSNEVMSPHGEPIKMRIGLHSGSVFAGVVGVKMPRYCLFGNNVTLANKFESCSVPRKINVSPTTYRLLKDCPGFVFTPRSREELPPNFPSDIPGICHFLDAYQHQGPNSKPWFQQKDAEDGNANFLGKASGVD
T1 sequence (P20595 1-619): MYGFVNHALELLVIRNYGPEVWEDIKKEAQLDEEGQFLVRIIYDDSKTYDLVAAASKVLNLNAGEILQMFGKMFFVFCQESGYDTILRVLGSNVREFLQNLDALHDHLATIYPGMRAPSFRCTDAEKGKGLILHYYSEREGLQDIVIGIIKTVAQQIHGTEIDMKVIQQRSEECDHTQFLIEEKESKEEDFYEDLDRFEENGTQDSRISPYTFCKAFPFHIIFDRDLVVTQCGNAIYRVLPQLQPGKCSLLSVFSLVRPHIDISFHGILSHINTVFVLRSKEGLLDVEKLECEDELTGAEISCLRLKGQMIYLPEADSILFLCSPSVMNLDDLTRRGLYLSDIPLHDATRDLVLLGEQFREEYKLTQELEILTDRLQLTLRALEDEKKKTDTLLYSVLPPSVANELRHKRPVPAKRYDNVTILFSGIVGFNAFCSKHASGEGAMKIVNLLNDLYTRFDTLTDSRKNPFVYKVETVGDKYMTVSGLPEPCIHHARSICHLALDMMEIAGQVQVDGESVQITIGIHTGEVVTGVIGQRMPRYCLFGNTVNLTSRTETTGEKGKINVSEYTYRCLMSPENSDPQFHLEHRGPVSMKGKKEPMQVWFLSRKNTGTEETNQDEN
Type: cell-based
Procedure: B-2. Effect on a Recombinant Guanylate Cyclase Reporter Cell Line
The cellular effect of the inventive compounds is determined using a recombinant guanylate cyclase reporter cell line, as described in F. Wunder et al., Anal. Biochem. 339, 104-112 (2005).
Representative MEC values (MEC=minimum effective concentration) for the inventive compounds are shown in the table below (in some cases as mean values for individual determinations): […]

Compared with CCCC(C)(N)CNC(=O)c1c(C)nn2c(OCC3CCCCC3)cc(C)cc12 (racemic) [Example 159, rac-N-(2-Amino-2-methylpentyl)-7-(cyclohexylmethoxy)-2,5-dimethylpyrazolo[1,5-a]pyridine-3-carboxamide], CCCC(C)(N)CNC(=O)c1c(C)nn2c(OCc3ncccc3F)cc(C)cc12 (racemic) [Example 166, rac-N-(2-Amino-2-methylpentyl)-7-[(3-fluoropyridin-2-yl)methoxy]-2,5-dimethylpyrazolo[1,5-a]pyridine-3-carboxamide] is 3.3-fold higher in “MEC (minimum effective concentration)” value: 3.0 µM for the first, 10 µM for the second.

Cc1cc(OCc2c(F)cccc2F)n2nc(C)c(C(=O)N[C@@H](CO)c3ccc(C)o3)c2c1 [Example 177, 7-[(2,6-Difluorobenzyl)oxy]-N-[(1S)-2-hydroxy-1-(5-methy1-2-furyl)ethyl]-2,5-dimethylpyrazolo[1,5-a]pyridine-3-carboxamide] and Cc1cc(OCc2c(F)cccc2F)n2nc(C)c(C(=O)NC(CN)c3ccc4c(c3)OCO4)c2c1 (racemic) [Example 120, rac-N-[2-Amino-1-(1,3-benzodioxol-5-yl)ethyl]-7-[(2,6-difluorobenzyl)oxy]-2,5-dimethylpyrazolo[1,5-a]pyridine-3-carboxamide] are the same in “MEC (minimum effective concentration)” value: 1.0 µM for the first, 1.0 µM for the second.

Going from Cc1cc(OCc2c(F)cccc2F)n2nc(C)c(C(=O)NN3CCN(C)CC3)c2c1 [Example 173, 7-[(2,6-Difluorobenzyl)oxy]-2,5-dimethyl-N-(4-methylpiperazin-1-yl)pyrazolo[1,5-a]pyridine-3-carboxamide] to Cc1cc(OCc2c(F)cccc2F)n2nc(C)c(C(=O)NCC(C)(N)CF)c2c1 (single isomer, unassigned) [Example 41, ent-N-(2-Amino-3-fluoro-2-methylpropyl)-7-[(2,6-difluorobenzyl)oxy]-2,5-dimethylpyrazolo[1,5-a]pyridine-3-carboxamide], the “MEC (minimum effective concentration)” value falls from 1.0 µM to 0.3 µM (3.3-fold).

Cc1cc(OCc2c(F)ccc(F)c2F)n2nc(C)c(C(=O)NCc3ccccc3-c3cccnc3)c2c1 [Example 14, 2,5-Dimethyl-N-[2-(pyridin-3-yl)benzyl]-7-[(2,3,6-trifluorobenzyl)oxy]pyrazolo[1,5-a]pyridine-3-carboxamide] and Cc1cc(OCc2c(F)ccc(F)c2F)n2nc(C)c(C(=O)NCc3ccccc3-n3ccnc3)c2c1 [Example 32, N-[2-(1H-Imidazol-1-yl)benzyl]-2,5-dimethyl-7-[(2,3,6-trifluorobenzyl)oxy]pyrazolo[1,5-a]pyridine-3-carboxamide] are the same in “MEC (minimum effective concentration)” value: 0.3 µM for the first, 0.3 µM for the second.

Cc1cc(OCc2c(F)cccc2F)n2nc(C)c(C(=O)NCC(N)C#N)c2c1 (racemic) [Example 59, rac-N-(2-Amino-2-cyanoethyl)-7-[(2,6-difluorobenzyl)oxy]-2,5-dimethylpyrazolo[1,5-a]pyridine-3-carboxamide] and Cc1cc(OCc2c(F)cccc2F)n2nc(C)c(C(=O)NCC(N)CC(F)(F)F)c2c1 (racemic) [Example 107, rac-N-(2-Amino-4,4,4-trifluorobutyl)-7-[(2,6-difluorobenzyl)oxy]-2,5-dimethylpyrazolo[1,5-a]pyridine-3-carboxamide] are the same in “MEC (minimum effective concentration)” value: 3.0 µM for the first, 3.0 µM for the second.

Going from CCC(C)(N)CNC(=O)c1c(C)nn2c(OCc3c(F)ccc(F)c3F)cc(C)cc12 (single isomer, unassigned) [Example 3, ent-N-(2-Amino-2-methylbutyl)-2,5-dimethyl-7-[(2,3,6-trifluorobenzyl)oxy]pyrazolo[1,5-a]pyridine-3-carboxamide] to CCC(CO)(CO)NC(=O)c1c(C)nn2c(OCc3c(F)ccc(F)c3F)cc(C)cc12 [Example 28, N-[1-Hydroxy-2-(hydroxymethyl)butan-2-yl]-2,5-dimethyl-7-[(2,3,6-trifluorobenzyl)oxy]pyrazolo[1,5-a]pyridine-3-carboxamide], the “MEC (minimum effective concentration)” value rises from 0.3 µM to 1.0 µM (3.3-fold).

Compared with Cc1cc(OCc2c(F)cccc2F)n2nc(C)c(C(=O)NC3CCOc4c(C#N)cccc43)c2c1 (racemic) [Example 140, rac-N-(8-Cyano-3,4-dihydro-2H-chromen-4-yl)-7-[(2,6-difluorobenzyl)oxy]-2,5-dimethylpyrazolo[1,5-a]pyridine-3-carboxamide], Cc1cc(OCc2c(F)cccc2F)n2nc(C)c(C(=O)NC3CCOc4ncccc43)c2c1 (racemic) [Example 74, rac-7-[(2,6-Difluorobenzyl)oxy]-N-(3,4-dihydro-2H-pyrano[2,3-b]pyridin-4-yl)-2,5-dimethylpyrazolo[1,5-a]pyridine-3-carboxamide trifluoroacetate] is 10-fold lower in “MEC (minimum effective concentration)” value: 0.3 µM for the first, 0.03 µM for the second.

Going from COC(=O)C12CC3CC(CC(CNC(=O)c4c(C)nn5c(OCc6c(F)cccc6F)cc(C)cc45)(C3)C1)C2 [Example 155, Methyl 3-{[({7-[(2,6-difluorobenzyl)oxy]-2,5-dimethylpyrazolo[1,5-a]pyridin-3-yl}carbonyl)amino]methyl}adamantane-1-carboxylate] to Cc1cc(OCc2c(F)cccc2F)n2nc(C)c(C(=O)NC[C@H]3CC[C@H](C(=O)O)CC3)c2c1 [Example 36, trans-4-{[({7-[(2,6-Difluorobenzyl)oxy]-2,5-dimethylpyrazolo[1,5-a]pyridin-3-yl}carbonyl)amino]methyl}cyclohexanecarboxylic Acid], the “MEC (minimum effective concentration)” value rises from 1.0 µM to 3.0 µM (3-fold).

Going from Cc1cc(OCc2c(F)cccc2F)n2nc(C)c(C(=O)NC(CN)c3cccc(OC(F)(F)F)c3)c2c1 (racemic) [Example 132, rac-N-{2-Amino-1-[3-(trifluoromethoxy)phenyl]ethyl}-7-[(2,6-difluorobenzyl)oxy]-2,5-dimethylpyrazolo[1,5-a]pyridine-3-carboxamide] to COC(=O)c1cccc(C(N)CNC(=O)c2c(C)nn3c(OCc4c(F)cccc4F)cc(C)cc23)c1 (racemic) [Example 114, rac-Methyl 3-{1-amino-2-[({7-[(2,6-difluorobenzyl)oxy]-2,5-dimethylpyrazolo[1,5-a]pyridin-3-yl}carbonyl)amino]ethyl}benzoate], the “MEC (minimum effective concentration)” value rises from 1.0 µM to 10 µM (10-fold).

Compared with Cc1cc(OCc2c(F)ccc(F)c2F)n2nc(C)c(C(=O)NC(C)c3nc(C(F)(F)F)no3)c2c1 (racemic) [Example 19, rac-2,5-Dimethyl-7-[(2,3,6-trifluorobenzyl)oxy]-N-{1-[3-(trifluoromethyl)-1,2,4-oxadiazol-5-yl]ethyl}pyrazolo[1,5-a]pyridine-3-carboxamide], Cc1cc(OCc2c(F)ccc(F)c2F)n2nc(C)c(C(=O)Nc3cnn(CCO)c3)c2c1 [Example 33, N-[1-(2-Hydroxyethyl)-1H-pyrazol-4-yl] -2,5-dimethyl-7-[(2,3,6-trifluorobenzyl)oxy]pyrazolo[1,5-a]pyridine-3-carboxamide] is 10-fold higher in “MEC (minimum effective concentration)” value: 0.3 µM for the first, 3.0 µM for the second.

CSCCC(N)CNC(=O)c1c(C)nn2c(OCc3c(F)cccc3F)cc(C)cc12 (racemic) [Example 156, rac-N-[2-Amino-4-(methylsulphanyl)butyl]-7-[(2,6-difluorobenzyl)oxy]-2,5-dimethylpyrazolo[1,5-a]pyridine-3-carboxamide] and CCC(C)(N)CNC(=O)c1c(C2CC2)nn2c(OCc3c(F)cccc3F)cc(C)cc12 (single isomer, unassigned) [Example 54, ent-N-(2-Amino-2-methylbutyl)-2-cyclopropyl-7-[(2,6-difluorobenzyl)oxy]-5-methylpyrazolo[1,5-a]pyridine-3-carboxamide] are the same in “MEC (minimum effective concentration)” value: 0.3 µM for the first, 0.3 µM for the second.

CCCC(C)(N)CNC(=O)c1c(C)nn2c(OCc3c(F)cccc3F)cc(C3CC3)cc12 (racemic) [Example 167, rac-N-(2-Amino-2-methylpentyl)-5-cyclopropyl-7-[(2,6-difluorobenzyl)oxy]-2-methylpyrazolo[1,5-a]pyridine-3-carboxamide] was tested, and the “MEC (minimum effective concentration)” value was 3.0 µM.
